Columns and labels:
EZH2 = EZH2 (Homo sapiens, UniProt Q15910); assay: AlphaLISA enzyme activity inhibition, EZH2; format: biochemical; conditions: for inhibition at 0.005 µM: 5nM test substance; for inhibition at 0.01 µM: 10nM test substance
Method in brief: (§1)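 Enzyme inhibition rate was calculated relative to DMSO from AlphaLISA signal, with acceptor beads added after a 2 h methylation reaction and donor beads 1 h later. Each enzyme, EZH1 or EZH2, was pre-mixed with compound (final 5 nM or 10 nM) in Tris buffer pH 8.0 before histone H3 peptide and SAM initiated the reaction.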

MIA-PaCa-2 cells = assay: Cancer cell proliferation inhibition (Cell Counting Kit-8), pancreatic cancer cell line; format: cell-based; conditions: Homo sapiens, MIA PaCa-2, 264 h, 1000 nM, cultured seven to 11 days; read-out: % inhibition rate MIA-Paca2
Method in brief: (§2)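 Percent inhibition, calculated as {1−(test group/control group)} × 100, comes from Cell Counting Kit-8 measurement. Treatment was 1000 nM test substance for seven to 11 days on cells plated at 100 to 1,000 per well in serum-containing medium.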

MKN-45 cells = assay: Cancer cell proliferation inhibition (Cell Counting Kit-8), gastric cancer cell line; format: cell-based; conditions: Homo sapiens, MKN-45, 264 h, 1000 nM, cultured seven to 11 days; read-out: % inhibition rate MKN -45
Method in brief: (§3)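 Single 1000 nM dose of test substance, applied to cells seeded at 100–1,000 per well in 10% FBS medium, then culture for seven to 11 days. CCK-8 read-out; inhibition rate expressed as percent relative to untreated control.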

NCI-H1299 cells = assay: Cancer cell proliferation inhibition (Cell Counting Kit-8), lung cancer cell line; format: cell-based; conditions: Homo sapiens, NCI-H1299, 264 h, 1000 nM, cultured seven to 11 days; read-out: % inhibition rate NCI-H129 9
Method in brief: as §2

EZH1 = EZH1 (Homo sapiens, UniProt Q92800); assay: AlphaLISA enzyme activity inhibition, EZH1; format: biochemical; conditions: for inhibition at 0.005 µM: 5nM test substance; for inhibition at 0.01 µM: 10nM test substance
Sequence of EZH1 (Q92800 whole entry, species assumed): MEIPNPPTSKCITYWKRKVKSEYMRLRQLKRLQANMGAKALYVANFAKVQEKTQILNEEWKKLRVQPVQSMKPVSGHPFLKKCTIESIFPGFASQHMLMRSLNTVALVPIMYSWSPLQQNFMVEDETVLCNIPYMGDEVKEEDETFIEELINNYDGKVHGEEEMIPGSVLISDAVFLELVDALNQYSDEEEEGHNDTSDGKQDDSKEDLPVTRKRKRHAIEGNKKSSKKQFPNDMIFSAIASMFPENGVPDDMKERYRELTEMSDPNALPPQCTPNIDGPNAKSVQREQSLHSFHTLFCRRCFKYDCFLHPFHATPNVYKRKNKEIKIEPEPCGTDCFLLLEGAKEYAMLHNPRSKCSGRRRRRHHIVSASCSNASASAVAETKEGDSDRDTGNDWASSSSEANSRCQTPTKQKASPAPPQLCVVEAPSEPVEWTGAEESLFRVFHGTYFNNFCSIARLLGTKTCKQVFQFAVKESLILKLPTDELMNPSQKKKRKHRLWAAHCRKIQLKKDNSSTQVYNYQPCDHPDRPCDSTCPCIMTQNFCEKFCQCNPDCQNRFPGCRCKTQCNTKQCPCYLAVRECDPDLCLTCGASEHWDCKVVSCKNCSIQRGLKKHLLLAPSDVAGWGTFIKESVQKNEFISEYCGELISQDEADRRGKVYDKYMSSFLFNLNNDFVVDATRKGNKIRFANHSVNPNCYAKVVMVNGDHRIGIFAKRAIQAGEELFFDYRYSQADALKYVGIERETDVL
Sequence of EZH1 (O75530 whole entry partner, species assumed): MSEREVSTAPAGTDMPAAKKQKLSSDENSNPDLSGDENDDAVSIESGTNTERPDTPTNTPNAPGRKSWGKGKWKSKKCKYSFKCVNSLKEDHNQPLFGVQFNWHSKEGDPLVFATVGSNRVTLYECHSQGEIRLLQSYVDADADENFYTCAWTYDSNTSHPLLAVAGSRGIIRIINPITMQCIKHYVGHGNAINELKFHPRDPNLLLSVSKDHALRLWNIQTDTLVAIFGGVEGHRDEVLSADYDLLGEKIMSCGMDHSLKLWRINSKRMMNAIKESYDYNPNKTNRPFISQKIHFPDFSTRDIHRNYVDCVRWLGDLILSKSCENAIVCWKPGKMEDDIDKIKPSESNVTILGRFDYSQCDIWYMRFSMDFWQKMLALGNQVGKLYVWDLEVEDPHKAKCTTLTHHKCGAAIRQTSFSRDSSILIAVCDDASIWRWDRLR
Sequence of EZH1 (Q15022 whole entry partner, species assumed): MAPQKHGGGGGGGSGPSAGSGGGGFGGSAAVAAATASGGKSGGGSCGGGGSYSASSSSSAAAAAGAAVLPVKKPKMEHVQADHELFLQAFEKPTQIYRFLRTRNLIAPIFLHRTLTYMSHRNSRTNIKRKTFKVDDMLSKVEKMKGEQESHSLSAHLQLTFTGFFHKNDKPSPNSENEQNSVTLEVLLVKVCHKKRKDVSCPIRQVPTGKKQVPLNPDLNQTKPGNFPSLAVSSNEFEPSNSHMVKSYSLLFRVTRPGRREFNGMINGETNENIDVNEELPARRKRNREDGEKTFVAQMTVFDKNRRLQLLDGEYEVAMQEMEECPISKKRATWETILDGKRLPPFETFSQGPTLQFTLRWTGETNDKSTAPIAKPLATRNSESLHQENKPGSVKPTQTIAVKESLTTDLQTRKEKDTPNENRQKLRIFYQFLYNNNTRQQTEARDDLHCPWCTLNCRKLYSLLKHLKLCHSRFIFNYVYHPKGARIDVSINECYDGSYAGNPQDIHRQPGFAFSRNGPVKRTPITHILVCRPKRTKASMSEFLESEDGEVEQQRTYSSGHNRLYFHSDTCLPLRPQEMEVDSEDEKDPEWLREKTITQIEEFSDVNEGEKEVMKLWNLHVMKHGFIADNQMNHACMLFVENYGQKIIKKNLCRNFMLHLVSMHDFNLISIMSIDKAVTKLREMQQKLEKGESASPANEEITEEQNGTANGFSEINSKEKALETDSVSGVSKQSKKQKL
Method in brief: as §1

Lovo cells = assay: Cancer cell proliferation inhibition (Cell Counting Kit-8), colorectal cancer cell line; format: cell-based; conditions: Homo sapiens, LoVo, 264 h, 1000 nM, cultured seven to 11 days; read-out: % inhibition rate LoVo
Method in brief: as §2

SW-13 cells = assay: Cancer cell proliferation inhibition (Cell Counting Kit-8), adrenal cancer cell line; format: cell-based; conditions: Homo sapiens, SW13, 264 h, 1000 nM, cultured seven to 11 days; read-out: % inhibition rate SW-13
Method in brief: as §2

G401 cells = assay: Cancer cell proliferation inhibition (Cell Counting Kit-8), rhabdoid tumor cell line; format: cell-based; conditions: Homo sapiens, G-401, 264 h, 1000 nM, cultured seven to 11 days; read-out: % inhibition rate G401
Method in brief: as §3

Sequence of EZH2 (Q15910 whole entry, species assumed): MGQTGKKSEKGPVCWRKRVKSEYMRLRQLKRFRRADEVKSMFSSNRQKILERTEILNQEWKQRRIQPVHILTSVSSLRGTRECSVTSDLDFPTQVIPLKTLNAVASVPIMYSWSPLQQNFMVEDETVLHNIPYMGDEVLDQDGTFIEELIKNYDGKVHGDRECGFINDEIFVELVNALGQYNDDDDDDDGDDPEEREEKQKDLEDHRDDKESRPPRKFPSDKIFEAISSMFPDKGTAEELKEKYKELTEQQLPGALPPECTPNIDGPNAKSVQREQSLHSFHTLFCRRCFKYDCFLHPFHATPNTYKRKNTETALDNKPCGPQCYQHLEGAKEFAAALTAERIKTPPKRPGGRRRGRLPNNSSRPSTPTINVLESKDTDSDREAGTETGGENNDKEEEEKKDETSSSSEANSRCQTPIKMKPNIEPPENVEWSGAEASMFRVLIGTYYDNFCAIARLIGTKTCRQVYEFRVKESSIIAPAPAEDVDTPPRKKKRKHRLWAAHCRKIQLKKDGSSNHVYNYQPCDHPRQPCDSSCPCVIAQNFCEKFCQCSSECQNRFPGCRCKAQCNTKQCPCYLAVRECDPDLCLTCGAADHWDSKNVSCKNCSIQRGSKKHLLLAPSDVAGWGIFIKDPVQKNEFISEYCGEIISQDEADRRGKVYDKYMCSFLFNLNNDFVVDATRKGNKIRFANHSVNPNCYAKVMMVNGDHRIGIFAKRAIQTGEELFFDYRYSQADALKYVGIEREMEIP
Sequence of EZH2 (O75530 whole entry partner, species assumed): as the sequence (O75530 whole entry partner, species assumed) above
Sequence of EZH2 (Q15022 whole entry partner, species assumed): as the sequence (Q15022 whole entry partner, species assumed) above

| SMILES | inhibition at 0.005 µM (EZH2) [%] | inhibition at 0.01 µM (EZH2) [%] | inhibition at 1 µM (MIA-PaCa-2 cells) [%] | inhibition at 1 µM (MKN-45 cells) [%] | inhibition at 1 µM (NCI-H1299 cells) [%] | inhibition at 0.005 µM (EZH1) [%] | inhibition at 0.01 µM (EZH1) [%] | inhibition at 1 µM (Lovo cells) [%] | inhibition at 1 µM (SW-13 cells) [%] | inhibition at 1 µM (G401 cells) [%] |
| --- | --- | --- | --- | --- | --- | --- | --- | --- | --- | --- |
| CCN(C)[C@H]1CC[C@H](C2(C)Oc3c(-c4ccc(N5C[C@@H](C)O[C@@H](C)C5)nc4)cc(C(=O)NCc4c(SC)cc(C)[nH]c4=O)c(C)c3O2)CC1 (stereo partly drawn) [Compound 111, 7-(6-((2S,6R)-2,6-dimethylmorpholino)pyridin-3-yl)-2-(trans-4-(ethyl(methyl)amino)cyclohexyl)-2,4-dimethyl-N-((6-methyl-4-(methylthio)-2-oxo-1,2-dihydropyridin-3-yl)methyl)benzo[d][1,3]dioxole-5-carboxamide] | 86.7 | 100 | ≤ 30 | ≤ 30 | ≤ 30 | 28.1 | 62.1 | ≥ 70 | 30 to 70 | ≥ 70 |
| CSc1cc(C)[nH]c(=O)c1CNC(=O)c1cc(-c2ccc(N3C[C@@H](C)O[C@@H](C)C3)nc2)c2c(c1C)OC(C)([C@H]1CC[C@H](N(C)CCc3ccccc3)CC1)O2 (stereo partly drawn) [Compound 112, 7-(6-((2S,6R)-2,6-dimethylmorpholino)pyridin-3-yl)-2,4-dimethyl-2-(trans-4-(methyl(phenethyl)amino)cyclohexyl)-N-((6-methyl-4-(methylthio)-2-oxo-1,2-dihydropyridin-3-yl)methyl)benzo[d][1,3]dioxole-5-carboxamide] | 58.5 | 97 | ≤ 30 | 30 to 70 | ≤ 30 | 24.3 | 40.7 | ≥ 70 | 30 to 70 | ≥ 70 |
| CSc1cc(C)[nH]c(=O)c1CNC(=O)c1cc(-c2ccc(N3C[C@@H](C)O[C@@H](C)C3)nc2)c2c(c1C)OC(C)([C@H]1CC[C@H](N(C)CCCC(F)(F)F)CC1)O2 (some centres unmarked) [Compound 113] | 96.7 | 100 | ≤ 30 | ≤ 30 | ≤ 30 | 32.5 | 68.8 | ≥ 70 | 30 to 70 | ≥ 70 |
| CSc1cc(C)[nH]c(=O)c1CNC(=O)c1cc(-c2ccc(N3C[C@@H](C)O[C@@H](C)C3)nc2)c2c(c1C)OC(C)([C@H]1CC[C@H](N(C)C3CCCCC3)CC1)O2 (stereo partly drawn) [Compound 114, 2-(trans-4-(cyclohexyl(methyl)amino)cyclohexyl)-7-(6-((2S,6R)-2,6-dimethylmorpholino)pyridin-3-yl)-2,4-dimethyl-N-((6-methyl-4-(methylthio)-2-oxo-1,2-dihydropyridin-3-yl)methyl)benzo[d][1,3]dioxole-5-carboxamide] | 45.8 | 91.7 | ≤ 30 | ≤ 30 | ≤ 30 | 28.6 | 38.2 | ≥ 70 | 30 to 70 | ≥ 70 |
| CSc1cc(C)[nH]c(=O)c1CNC(=O)c1cc(-c2ccc(N3C[C@@H](C)O[C@@H](C)C3)nc2)c2c(c1C)OC(C)([C@H]1CC[C@H](N(C)C(=O)C(F)(F)F)CC1)O2 (stereo partly drawn) [Compound 115, 7-(6-((2S,6R)-2,6-dimethylmorpholino)pyridin-3-yl)-2,4-dimethyl-N-((6-methyl-4-(methylthio)-2-oxo-1,2-dihydropyridin-3-yl)methyl)-2-(trans-4-(2,2,2-trifluoro-N-methylacetamido)cyclohexyl)benzo[d][1,3]dioxole-5-carboxamide] | 37.3 | 85.8 | ≤ 30 | ≤ 30 | ≤ 30 | 6.1 | 9.6 | ≥ 70 | ≤ 30 | 30 to 70 |
